Measured values from patent publication US20020051978A1, “Methods and compositions for the identification, assessment, prevention and therapy of human cancers” (priority 2000, published 2002).
Read-outs that look alike come from different tables or passages of the source.

Tests used:
[1] = tested on: 60 cancer cell lines (NCI 60 cancer cell line series); test: NCI-DTP in vitro cancer screen, sulforhodamine B (SRB) growth inhibition, 48 hour exposure; format: cell-based, human; set-up: key to sensitivity class Ovarian OVCAR-8 CL6005 / sensitivity class Ovarian SK-OV-3 CL6011 / sensitivity class Prostate DU-145 CL11003 / sensitivity class NSCLC NCI-H522 CL1003 / sensitivity class Ovarian IGROV1 CL6010 / sensitivity class Ovarian OVCAR-4 CL6002 / sensitivity class Prostate PC-3(I) CL11001 / sensitivity class Renal A498 CL9013 / sensitivity class Renal SN12C CL9008: sensitivity class: 1 = Low, 2 = Medium, 3 = High
Summary of the method: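 Values come from the NCI-DTP screen database: -log GI50, the concentration giving 50% growth inhibition, derived from SRB cell-mass dose-response curves. Each line seeded at its own density, treated day 1 at five ten-fold-spaced doses in duplicate wells, stained after 48 h.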

[2] = tested on: 60 cancer cell lines (NCI 60 cancer cell line series); settings: cited from earlier work

With `NC(=O)NO` [Hydroxyurea] the “classification of cell line as Low(1), Medium(2) or High(3) sensitivity to compound” value (from here on “classification of cell line”) ([1]; Breast BT-549 (CL5013)) was 1, the “classification of cell line” value ([1]; Breast HS-578T CL5006) was 2 and the “classification of cell line” value ([1]; Breast MCF7(I) (CL5001)) was 2. For the same molecule, the “classification of cell line” value ([1]; Breast MCF7/ADRr (CL5002)) was 2, the “classification of cell line” value ([1]; Breast MDA-MB-231 CL5005) was 1 and the “classification of cell line” value ([1]; Breast MDA-MB-435 (CL5011)) was 1. For the same molecule, the “classification of cell line” value ([1]; Breast MDA-N CL5012) was 1, the “classification of cell line” value ([1]; Breast T-47D (CL5014)) was 1 and the “classification of cell line” value ([1]; CNS SF-268 CL12014) was 2. For the same molecule, the “classification of cell line” value ([1]; CNS SF-295 CL12015) was 3, the “classification of cell line” value ([1]; CNS SF-539 CL12016) was 3 and the “classification of cell line” value ([1]; CNS SNB-19 (CL12002)) was 1. The “classification of cell line” value ([1]; CNS SNB-75(I) CL12005) was 2, the “classification of cell line” value ([1]; CNS U251(I) CL12009) was 2 and the “classification of cell line” value ([1]; Colon COLO-250 CL4010) was 1. For the same molecule, the “classification of cell line” value ([1]; Colon HCC-2998 (CL4002)) was 2, the “classification of cell line” value ([1]; Colon HCT-15 CL4015) was 2 and the “classification of cell line” value ([1]; Colon HCT-116 (CL4003)) was 2. For the same molecule, the “classification of cell line” value ([1]; Colon HT29(I) CL4001) was 2, the “classification of cell line” value ([1]; Colon KM12 (CL4017)) was 2 and the “classification of cell line” value ([1]; Colon SW-620 (CL4009)) was 2. The “classification of cell line” value ([1]; Leukemia CCRF-CEM(I) (CL7003)) was 3, the “classification of cell line” value ([1]; Leukemia HL-60(I) (CL7008)) was 3 and the “classification of cell line” value ([1]; Leukemia K562(I) CL7005) was 2. The “classification of cell line” value ([1]; Leukemia MOLT-4 (CL7006)) was 3, the “classification of cell line” value ([1]; Leukemia RPMI-8226(I) (CL7010)) was 3 and the “classification of cell line” value ([1]; Leukemia SR CL7019) was 3. The “classification of cell line” value ([1]; Melanoma LOX IMVI CL10001) was 2, the “classification of cell line” value ([1]; Melanoma M14 (CL10014)) was 2 and the “classification of cell line” value ([1]; Melanoma MALME-3M CL10002) was 2. The “classification of cell line” value ([1]; Melanoma SK-MEL-2 (CL10005)) was 1, the “classification of cell line” value ([1]; Melanoma SK-MEL-5 (CL10007)) was 2 and the “classification of cell line” value ([1]; Melanoma SK-MEL-28 (CL10008)) was 1. The “classification of cell line” value ([1]; Melanoma UACC-62 (CL10020)) was 3, the “classification of cell line” value ([1]; Melanoma UACC-257 (CL10021)) was 1 and the “classification of cell line” value ([1]; NSCLC A549/ATCC (CL1004)) was 2. For the same molecule, the “classification of cell line” value ([1]; NSCLC EKVX (CL1008)) was 1, the “classification of cell line” value ([1]; NSCLC HOP-62 (CL1026)) was 2 and the “classification of cell line” value ([1]; NSCLC HOP-92 (CL1029)) was 2. For the same molecule, the “classification of cell line” value ([1]; NSCLC NCI-H226 CL1013) was 2, the “sensitivity class NSCLC NCI-H23(I) CL1001” value ([1]; cell line NSCLC NCI-H23(I), CL1001) was 2 and the “sensitivity class NSCLC NCI-H332M CL1017” value ([1]; cell line NSCLC NCI-H332M, CL1017) was 1. For the same molecule, the “sensitivity class NSCLC NCI-H460 CL1021” value ([1]; cell line NSCLC NCI-H460, CL1021) was 3, the “sensitivity class NSCLC NCI-H522 CL1003” value ([1]; cell line NSCLC NCI-H522, CL1003) was 2 and the “sensitivity class Ovarian IGROV1 CL6010” value ([1]; cell line Ovarian IGROV1, CL6010) was 2. For the same molecule, the “sensitivity class Ovarian OVCAR-3 CL6001” value ([1]; cell line Ovarian OVCAR-3, CL6001) was 2, the “sensitivity class Ovarian OVCAR-4 CL6002” value ([1]; cell line Ovarian OVCAR-4, CL6002) was 1 and the “sensitivity class Ovarian OVCAR-5 CL6003” value ([1]; cell line Ovarian OVCAR-5, CL6003) was 2. For the same molecule, the “sensitivity class Ovarian OVCAR-8 CL6005” value ([1]; cell line Ovarian OVCAR-8, CL6005) was 2, the “sensitivity class Ovarian SK-OV-3 CL6011” value ([1]; cell line Ovarian SK-OV-3, CL6011) was 1 and the “sensitivity class Prostate DU-145 CL11003” value ([1]; cell line Prostate DU-145, CL11003) was 2. For the same molecule, the “sensitivity class Prostate PC-3(I) CL11001” value ([1]; cell line Prostate PC-3(I), CL11001) was 2, the “sensitivity class Renal 786-O CL9018” value ([1]; cell line Renal 786-O, CL9018) was 2 and the “sensitivity class Renal A498 CL9013” value ([1]; cell line Renal A498, CL9013) was 2. The “sensitivity class Renal ACHN CL9023” value ([1]; cell line Renal ACHN, CL9023) was 3, the “sensitivity class Renal CAKI-1 CL9015” value ([1]; cell line Renal CAKI-1, CL9015) was 3 and the “sensitivity class Renal RXF-393 CL9016” value ([1]; cell line Renal RXF-393, CL9016) was 2. For the same molecule, the “sensitivity class Renal SN12C CL9008” value ([1]; cell line Renal SN12C, CL9008) was 2, the “sensitivity class Renal TK10 CL9024” value ([1]; cell line Renal TK10, CL9024) was 1 and the “sensitivity class Renal UO-31 CL9004” value ([1]; cell line Renal UO-31, CL9004) was 2. For the same molecule, the “-Log (GI50)” value ([2]; Breast BT-549 (CL5013)) was 2.8, the “-Log (GI50)” value ([2]; Breast HS-578T CL5006) was 3.1 and the “-Log (GI50)” value ([2]; Breast MCF7(I) (CL5001)) was 3.5. The “-Log (GI50)” value ([2]; Breast MCF7/ADRr (CL5002)) was 3.5, the “-Log (GI50)” value ([2]; Breast MDA-MB-231 CL5005) was 2.6 and the “-Log (GI50)” value ([2]; Breast MDA-MB-435 (CL5011)) was 2.7. The “-Log (GI50)” value ([2]; Breast MDA-N CL5012) was 2.7, the “-Log (GI50)” value ([2]; Breast T-47D (CL5014)) was 2.8 and the “-Log (GI50)” value ([2]; CNS SF-268 CL12014) was 3.3. For the same molecule, the “-Log (GI50)” value ([2]; CNS SF-295 CL12015) was 3.5, the “-Log (GI50)” value ([2]; CNS SF-539 CL12016) was 3.5 and the “-Log (GI50)” value ([2]; CNS SNB-19 (CL12002)) was 2.8. The “-Log (GI50)” value ([2]; CNS SNB-75(I) CL12005) was 3.1, the “-Log (GI50)” value ([2]; CNS U251(I) CL12009) was 3.3 and the “-Log (GI50)” value ([2]; Colon COLO-250 CL4010) was 2.8. For the same molecule, the “-Log (GI50)” value ([2]; Colon HCC-2998 (CL4002)) was 3.1, the “-Log (GI50)” value ([2]; Colon HCT-15 CL4015) was 3.1 and the “-Log (GI50)” value ([2]; Colon HCT-116 (CL4003)) was 3.0. The “-Log (GI50)” value ([2]; Colon HT29(I) CL4001) was 3.3, the “-Log (GI50)” value ([2]; Colon KM12 (CL4017)) was 3.1 and the “-Log (GI50)” value ([2]; Colon SW-620 (CL4009)) was 3.0. For the same molecule, the “-Log (GI50)” value ([2]; Leukemia CCRF-CEM(I) (CL7003)) was 4.3, the “-Log (GI50)” value ([2]; Leukemia HL-60(I) (CL7008)) was 4.7 and the “-Log (GI50)” value ([2]; Leukemia K562(I) CL7005) was 3.0. For the same molecule, the “-Log (GI50)” value ([2]; Leukemia MOLT-4 (CL7006)) was 3.8, the “-Log (GI50)” value ([2]; Leukemia RPMI-8226(I) (CL7010)) was 3.6 and the “-Log (GI50)” value ([2]; Leukemia SR CL7019) was 3.7. The “-Log (GI50)” value ([2]; Melanoma LOX IMVI CL10001) was 3.2, the “-Log (GI50)” value ([2]; Melanoma M14 (CL10014)) was 3.2 and the “-Log (GI50)” value ([2]; Melanoma MALME-3M CL10002) was 2.9. The “-Log (GI50)” value ([2]; Melanoma SK-MEL-2 (CL10005)) was 2.8, the “-Log (GI50)” value ([2]; Melanoma SK-MEL-5 (CL10007)) was 3.2 and the “-Log (GI50)” value ([2]; Melanoma SK-MEL-28 (CL10008)) was 2.7. The “-Log (GI50)” value ([2]; Melanoma UACC-62 (CL10020)) was 3.6, the “-Log (GI50)” value ([2]; Melanoma UACC-257 (CL10021)) was 2.8 and the “-Log (GI50)” value ([2]; NCSLC NCI-H522 CL1003) was 3.1. The “-Log (GI50)” value ([2]; NSCLC A549/ATCC (CL1004)) was 3.3, the “-Log (GI50)” value ([2]; NSCLC EKVX (CL1008)) was 2.8 and the “-Log (GI50)” value ([2]; NSCLC HOP-62 (CL1026)) was 3.0. For the same molecule, the “-Log (GI50)” value ([2]; NSCLC HOP-92 (CL1029)) was 3.1, the “-Log (GI50)” value ([2]; NSCLC NCI-H23(I) CL1001) was 3.1 and the “-Log (GI50)” value ([2]; NSCLC NCI-H226 CL1013) was 3.1. For the same molecule, the “-Log (GI50)” value ([2]; NSCLC NCI-H332M CL1017) was 2.8, the “-Log (GI50)” value ([2]; NSCLC NCI-H460 CL1021) was 3.5 and the “-Log (GI50)” value ([2]; Ovarian IGROV1 CL6010) was 3.0. The “-Log (GI50)” value ([2]; Ovarian OVCAR-3 CL6001) was 3.0, the “-Log (GI50)” value ([2]; Ovarian OVCAR-4 CL6002) was 2.8 and the “-Log (GI50)” value ([2]; Ovarian OVCAR-5 CL6003) was 3.2. For the same molecule, the “-Log (GI50)” value ([2]; Ovarian OVCAR-8 CL6005) was 3.3, the “-Log (GI50)” value ([2]; Ovarian SK-OV-3 CL6011) was 2.8 and the “-Log (GI50)” value ([2]; Prostate DU-145 CL11003) was 3.1. For the same molecule, the “-Log (GI50)” value ([2]; Prostate PC-3(I) CL11001) was 3.0, the “-Log (GI50)” value ([2]; Renal 786-O CL9018) was 3.5 and the “-Log (GI50)” value ([2]; Renal A498 CL9013) was 3.2. The “-Log (GI50)” value ([2]; Renal ACHN CL9023) was 4.0, the “-Log (GI50)” value ([2]; Renal CAKI-1 CL9015) was 3.6 and the “-Log (GI50)” value ([2]; Renal RXF-393 CL9016) was 3.2. For the same molecule, the “-Log (GI50)” value ([2]; Renal SN12C CL9008) was 3.1, the “-Log (GI50)” value ([2]; Renal TK10 CL9024) was 2.7 and the “-Log (GI50)” value ([2]; Renal UO-31 CL9004) was 3.3.
